According to patent US20240238242A1, “EGCG buccal tablet and use thereof” (priority 2023, published 2024):
Like-named read-outs stand apart in the source and are kept apart here.

Tests used:
[1] = system: Madin-darby canine kidney cells (MDCK)
[2] = system: Novel enterovirus D68 (EV-D68); format: cell-based; details: for CPE test per cell well: first experiment; for CPE test (virus replication in cell wells) / CPE test (virus replication in the cell wells): wells 1-10; for average inactivation efficiency against virus: 0.2 mM EGCG, EV-D68 virus, three experiments

## O=C(O[C@@H]1Cc2c(O)cc(O)cc2O[C@@H]1c1cc(O)c(O)c(O)c1)c1cc(O)c(O)c(O)c1 [EGCG, Epigallocatechin gallate]
[1]
  CPE test / cytotoxicity, negative control group: −
  Cytotoxicity / CPE in cell wells 1-10, negative control group: −
  Cytotoxicity / CPE in cell wells, negative control group (EGCG + culture medium): −
  Cytotoxicity / CPE in cell wells, negative control group (wells 1-10): −
  Cytotoxicity / CPE in negative control group: −
  Cytotoxicity / CPE per cell well, negative control group: −
  Cytotoxicity / CPE test, negative control group: −
[1]; MDCK cells, 0.2 mM group
  cell status in negative control group: good growth status
[1]; MDCK cells, 1 mM group
  cytotoxicity in negative control group: cytotoxicity was observed
[1]; MDCK cells, 5 mM group
  cytotoxicity in negative control group: cytotoxicity was observed
[1]; MDCK cells, sample of 10 times dilution in the 1 mM group
  cytotoxicity in negative control group: cytotoxicity was observed
[2]; 0.2 mM EGCG + EV-D68 virus, 1 minute, dilution factor 10^1, wells 1-10
  CPE test per cell well: +
[2]; 0.2 mM EGCG + EV-D68 virus, 1 minute, dilution factor 10^2, wells 1-10
  CPE test per cell well: +
[2]; 0.2 mM EGCG + EV-D68 virus, 1 minute, dilution factor 10^3, wells 1-10
  CPE test per cell well: +
[2]; 0.2 mM EGCG + EV-D68 virus, 1 minute, dilution factor 10^4, wells 1-10
  CPE test per cell well: +
[2]; 0.2 mM EGCG + EV-D68 virus, 1 minute, dilution factor 10^5, wells 1-10
  CPE test per cell well: +
[2]; 0.2 mM EGCG + EV-D68 virus, 1 minute, dilution factor 10^6, wells 1-10
  CPE test per cell well: − and +
[2]; 0.2 mM EGCG + EV-D68 virus, 1 minute, dilution factor 10^7, wells 1-10
  CPE test per cell well: − and +
[2]; 0.2 mM EGCG + EV-D68 virus, 1 minute, dilution factor 10^8, wells 1-10
  CPE test per cell well: −
[2]; 0.2 mM EGCG + EV-D68 virus, co-incubated 5 minute, third experiment, dilution factor 10^1
  CPE test (virus replication in cell wells): +
[2]; 0.2 mM EGCG + EV-D68 virus, co-incubated 5 minute, third experiment, dilution factor 10^2
  CPE test (virus replication in cell wells): +
[2]; 0.2 mM EGCG + EV-D68 virus, co-incubated 5 minute, third experiment, dilution factor 10^3
  CPE test (virus replication in cell wells): +
[2]; 0.2 mM EGCG + EV-D68 virus, co-incubated 5 minute, third experiment, dilution factor 10^4
  CPE test (virus replication in cell wells): +
[2]; 0.2 mM EGCG + EV-D68 virus, co-incubated 5 minute, third experiment, dilution factor 10^5
  CPE test (virus replication in cell wells): +
[2]; 0.2 mM EGCG + EV-D68 virus, co-incubated 5 minute, third experiment, dilution factor 10^6
  CPE test (virus replication in cell wells): + and −
[2]; 0.2 mM EGCG + EV-D68 virus, co-incubated 5 minute, third experiment, dilution factor 10^7
  CPE test (virus replication in cell wells): −
[2]; 0.2 mM EGCG + EV-D68 virus, co-incubated 5 minute, third experiment, dilution factor 10^8
  CPE test (virus replication in cell wells): −
[2]; 0.2 mM EGCG + virus, 1 minute, dilution factor 10^1, second experiment
  CPE test (virus replication in cell wells): +
[2]; 0.2 mM EGCG + virus, 1 minute, dilution factor 10^1, third experiment
  CPE test (virus replication in cell wells): +
[2]; 0.2 mM EGCG + virus, 1 minute, dilution factor 10^2, second experiment
  CPE test (virus replication in cell wells): +
[2]; 0.2 mM EGCG + virus, 1 minute, dilution factor 10^2, third experiment
  CPE test (virus replication in cell wells): +
[2]; 0.2 mM EGCG + virus, 1 minute, dilution factor 10^3, second experiment
  CPE test (virus replication in cell wells): +
[2]; 0.2 mM EGCG + virus, 1 minute, dilution factor 10^3, third experiment
  CPE test (virus replication in cell wells): +
[2]; 0.2 mM EGCG + virus, 1 minute, dilution factor 10^4, second experiment
  CPE test (virus replication in cell wells): +
[2]; 0.2 mM EGCG + virus, 1 minute, dilution factor 10^4, third experiment
  CPE test (virus replication in cell wells): +
[2]; 0.2 mM EGCG + virus, 1 minute, dilution factor 10^5, second experiment
  CPE test (virus replication in cell wells): +
[2]; 0.2 mM EGCG + virus, 1 minute, dilution factor 10^5, third experiment
  CPE test (virus replication in cell wells): +
[2]; 0.2 mM EGCG + virus, 1 minute, dilution factor 10^6, second experiment
  CPE test (virus replication in cell wells): − and +
[2]; 0.2 mM EGCG + virus, 1 minute, dilution factor 10^6, third experiment
  CPE test (virus replication in cell wells): − and +
[2]; 0.2 mM EGCG + virus, 1 minute, dilution factor 10^7, second experiment
  CPE test (virus replication in cell wells): − and +
[2]; 0.2 mM EGCG + virus, 1 minute, dilution factor 10^7, third experiment
  CPE test (virus replication in cell wells): − and +
[2]; 0.2 mM EGCG + virus, 1 minute, dilution factor 10^8, second experiment
  CPE test (virus replication in cell wells): −
[2]; 0.2 mM EGCG + virus, 1 minute, dilution factor 10^8, third experiment
  CPE test (virus replication in cell wells): −
[2]; 0.2 mM EGCG + virus, co-incubated 5 minute, dilution factor 10^1, first experiment
  CPE test (virus replication in the cell wells): +
[2]; 0.2 mM EGCG + virus, co-incubated 5 minute, dilution factor 10^1, second experiment
  CPE test (virus replication in the cell wells): +
[2]; 0.2 mM EGCG + virus, co-incubated 5 minute, dilution factor 10^2, first experiment
  CPE test (virus replication in the cell wells): +
[2]; 0.2 mM EGCG + virus, co-incubated 5 minute, dilution factor 10^2, second experiment
  CPE test (virus replication in the cell wells): +
[2]; 0.2 mM EGCG + virus, co-incubated 5 minute, dilution factor 10^3, first experiment
  CPE test (virus replication in the cell wells): +
[2]; 0.2 mM EGCG + virus, co-incubated 5 minute, dilution factor 10^3, second experiment
  CPE test (virus replication in the cell wells): +
[2]; 0.2 mM EGCG + virus, co-incubated 5 minute, dilution factor 10^4, first experiment
  CPE test (virus replication in the cell wells): +
[2]; 0.2 mM EGCG + virus, co-incubated 5 minute, dilution factor 10^4, second experiment
  CPE test (virus replication in the cell wells): +
[2]; 0.2 mM EGCG + virus, co-incubated 5 minute, dilution factor 10^5, first experiment
  CPE test (virus replication in the cell wells): +
[2]; 0.2 mM EGCG + virus, co-incubated 5 minute, dilution factor 10^5, second experiment
  CPE test (virus replication in the cell wells): +
[2]; 0.2 mM EGCG + virus, co-incubated 5 minute, dilution factor 10^6, first experiment
  CPE test (virus replication in the cell wells): − and +
[2]; 0.2 mM EGCG + virus, co-incubated 5 minute, dilution factor 10^6, second experiment
  CPE test (virus replication in the cell wells): + and −
[2]; 0.2 mM EGCG + virus, co-incubated 5 minute, dilution factor 10^7, first experiment
  CPE test (virus replication in the cell wells): −
[2]; 0.2 mM EGCG + virus, co-incubated 5 minute, dilution factor 10^7, second experiment
  CPE test (virus replication in the cell wells): −
[2]; 0.2 mM EGCG + virus, co-incubated 5 minute, dilution factor 10^8, first experiment
  CPE test (virus replication in the cell wells): −
[2]; 0.2 mM EGCG + virus, co-incubated 5 minute, dilution factor 10^8, second experiment
  CPE test (virus replication in the cell wells): −
[2]; 1 minute
  average inactivation efficiency against virus: 12.30%
[2]; 5 minutes
  average inactivation efficiency against virus: 35.78%
[2]; 1 mM EGCG + EV-D68 virus, 1 minute, dilution factor 10^1, wells 1-10
  CPE test per cell well: +
[2]; 1 mM EGCG + EV-D68 virus, 1 minute, dilution factor 10^2, wells 1-10
  CPE test per cell well: +
[2]; 1 mM EGCG + EV-D68 virus, 1 minute, dilution factor 10^3, wells 1-10
  CPE test per cell well: +
[2]; 1 mM EGCG + EV-D68 virus, 1 minute, dilution factor 10^4, wells 1-10
  CPE test per cell well: +
[2]; 1 mM EGCG + EV-D68 virus, 1 minute, dilution factor 10^5, wells 1-10
  CPE test per cell well: +
[2]; 1 mM EGCG + EV-D68 virus, 1 minute, dilution factor 10^6, wells 1-10
  CPE test per cell well: + and −
[2]; 1 mM EGCG + EV-D68 virus, 1 minute, dilution factor 10^7, wells 1-10
  CPE test per cell well: −
[2]; 1 mM EGCG + EV-D68 virus, 1 minute, dilution factor 10^8, wells 1-10
  CPE test per cell well: −
[2]; 1 mM EGCG + EV-D68 virus, co-incubated 5 minute, third experiment, dilution factor 10^1
  CPE test (virus replication in cell wells): +
[2]; 1 mM EGCG + EV-D68 virus, co-incubated 5 minute, third experiment, dilution factor 10^2
  CPE test (virus replication in cell wells): +
[2]; 1 mM EGCG + EV-D68 virus, co-incubated 5 minute, third experiment, dilution factor 10^3
  CPE test (virus replication in cell wells): +
[2]; 1 mM EGCG + EV-D68 virus, co-incubated 5 minute, third experiment, dilution factor 10^4
  CPE test (virus replication in cell wells): +
[2]; 1 mM EGCG + EV-D68 virus, co-incubated 5 minute, third experiment, dilution factor 10^5
  CPE test (virus replication in cell wells): +
[2]; 1 mM EGCG + EV-D68 virus, co-incubated 5 minute, third experiment, dilution factor 10^6
  CPE test (virus replication in cell wells): + and −
[2]; 1 mM EGCG + EV-D68 virus, co-incubated 5 minute, third experiment, dilution factor 10^7
  CPE test (virus replication in cell wells): −
[2]; 1 mM EGCG + EV-D68 virus, co-incubated 5 minute, third experiment, dilution factor 10^8
  CPE test (virus replication in cell wells): −
[2]; 1 mM EGCG + virus, 1 minute, dilution factor 10^1, second experiment
  CPE test (virus replication in cell wells): +
[2]; 1 mM EGCG + virus, 1 minute, dilution factor 10^1, third experiment
  CPE test (virus replication in cell wells): +
